Data reported in patent US20120108636A1, “Allosteric Enhancers of th A1 Adenosine Receptor” (King Pharmaceuticals Research and Development, Inc., priority 2008, published 2012).

Legend:
[1] = molecular target: T1, human A1 receptors expressed in CHO membranes (Homo sapiens, UniProt P30542); experiment: Allosteric enhancement of specific binding of [3H]CCPA to hCHO-A1 membranes; settings: compound tested at 10 μM concentration
T1 construct: expressed in transfected cells; host or cells: CHO cells (hCHO-A1 clone), membrane preparation
T1 sequence (P30542 1-326): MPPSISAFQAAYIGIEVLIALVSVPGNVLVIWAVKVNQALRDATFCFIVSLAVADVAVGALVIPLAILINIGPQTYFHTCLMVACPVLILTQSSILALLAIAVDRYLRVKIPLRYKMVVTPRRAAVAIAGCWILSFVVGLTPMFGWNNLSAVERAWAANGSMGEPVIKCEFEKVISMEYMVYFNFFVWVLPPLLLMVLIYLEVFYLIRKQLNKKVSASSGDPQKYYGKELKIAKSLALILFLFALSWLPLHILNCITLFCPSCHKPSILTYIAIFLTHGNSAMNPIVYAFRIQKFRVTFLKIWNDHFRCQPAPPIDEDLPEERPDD
Experimental: (§1) Membrane Preparation from CHO Cells Transfected with the Human Recombinant A1, A2A and A3 Adenosine Receptors
The hCHO-A1, hCHO-A2A and hCHO-A3 cell clones are grown adherently and maintained in Dulbecco's modified Eagle's medium with nutrient mixture F12, containing 10% fetal calf serum, penicillin (100 U/mL), streptomycin (100 μg/mL), L-glutamine (2 mM), geneticine (G418) 0.2mg/mL at 37° C. in 5% CO2/95% air. 30 min at 37° C. (Klotz et al. Naunyn-Schmied. Arch Pharm. 1998, 357, 1-9). Cells are split two or three times weekly at a ratio of between 1:5 and 1:10. For membrane preparation the culture medium is removed. The cells are washed with PBS and scraped off T75 flasks in ice-cold hypotonic buffer (5 mM Tris HCl, 2 mM EDTA, pH 7.4). The cell suspension is homogenized with Polytron and the homogenate is spun for 10 min at 1,000×g. The supernatant is then centrifuged for 30 min at 100,000×g. […] The protein concentration is determined according to a Bio-Rad method (Bradford, 1976) with bovine albumin as a standard reference.
To determine the effect of the compounds of the present invention on the binding to A1, A2A and A3 receptors, membranes from hCHO-A1, hCHO-A2A, hCHO-A3 are incubated in a buffer solution in the absence and in the presence of the examined compounds. […] Bound and free radioactivity are separated by filtering the assay mixture through Whatman GF/B glass fibre filters using a Micro-mate 196 cell harvester (Packard Instrument Company). The filter bound radioactivity is counted on Top Count Microplate Scintillation Counter (efficacy 57%) with Micro-Scint 20. […]
Competition experiments are carried out in triplicate in a final volume of 250 μL in test tubes containing 1 nM [^3H]CCPA, 50 mM Tris-HCl, pH 7.4 and 100 μL of diluted membranes and at least six to eight different concentrations of the tested compounds in the range from 1 nM to 50 μM for 90 min at 25° C. […] Allosteric enhancement is measured as the action of different concentrations of the tested compounds to increase the specific binding of 1 nM [^3H]CCPA to hCHO-A1 membranes.

[2] = molecular target: T1, human A1 receptors expressed in CHO membranes; experiment: Saturation binding of [3H]CCPA to hCHO-A1; settings: compound tested at 10 μM concentration
Experimental: as §1
The hCHO-A1, hCHO-A2A and hCHO-A3 cell clones are grown adherently and maintained in Dulbecco's modified Eagle's medium with nutrient mixture F12, containing 10% fetal calf serum, penicillin (100 U/mL), streptomycin (100 μg/mL), L-glutamine (2 mM), geneticine (G418) 0.2mg/mL at 37° C. in 5% CO2/95% air. 30 min at 37° C. (Klotz et al. Naunyn-Schmied. Arch Pharm. 1998, 357, 1-9). Cells are split two or three times weekly at a ratio of between 1:5 and 1:10. For membrane preparation the culture medium is removed. The cells are washed with PBS and scraped off T75 flasks in ice-cold hypotonic buffer (5 mM Tris HCl, 2 mM EDTA, pH 7.4). The cell suspension is homogenized with Polytron and the homogenate is spun for 10 min at 1,000×g. The supernatant is then centrifuged for 30 min at 100,000×g. The membrane pellet is resuspended in 50 mM Tris HCl buffer pH 7.4 for The A1 adenosine receptors, 50 mM Tris HCl buffer pH 7.4, 10 mM MgCl2 for A2A adenosine receptors, 50 mM Tris HCl buffer pH 7.4, 10 mM MgCl2, 1 mM EDTA for A3 adenosine receptors and incubated with 3 Ul/mL of adenosine deaminase for 30 min at 37° C. The protein concentration is determined according to a Bio-Rad method (Bradford, 1976) with bovine albumin as a standard reference.
To determine the effect of the compounds of the present invention on the binding to A1, A2A and A3 receptors, membranes from hCHO-A1, hCHO-A2A, hCHO-A3 are incubated in a buffer solution in the absence and in the presence of the examined compounds. Test agents are dissolved in DMSO and added to the assay from a 100-fold concentrated solution in DMSO. Control incubations also contain 1% DMSO. Bound and free radioactivity are separated by filtering the assay mixture through Whatman GF/B glass fibre filters using a Micro-mate 196 cell harvester (Packard Instrument Company). The filter bound radioactivity is counted on Top Count Microplate Scintillation Counter (efficacy 57%) with Micro-Scint 20.
Saturation Binding of [^3H]CCPA to hCHO-A1 […]

| SMILES | increase of the A1 specific binding of the agonist [3H]CCPA to human CHO-A1 membranes [1] | increase in the BMAX value of the agonist [3H]CCPA [2] | melting point [°C] |
| --- | --- | --- | --- |
| CC(C)(C)CN(Cc1c(-c2ccccc2)sc(N)c1C(=O)c1ccc(Cl)cc1)CC(C)(C)C [Example 16-9, {2-Amino-4-[(dineopentylamino)methyl]-5-phenylthiophen-3-yl}(4-chlorophenyl)methanone] | ≤ 5.5 fold | ~6.3 fold |  |
| Nc1sc(-c2ccccc2)c(CN(C2CCCCC2)C2CCCCC2)c1C(=O)c1ccc(Cl)cc1 [Example 2, {2-Amino-4-[(dicyclohexylamino)methyl]-5-phenyithiophen-3-yl}(4-chlorophenyl)methanone] | up to 4.4 fold | about 3.5 fold |  |
| Nc1sc(-c2cccs2)c(CN(C2CCCCC2)C2CCCCC2)c1C(=O)c1ccc(Cl)cc1 [Example 30, {2-Amino-4-[(dicyclohexylamino)methyl]-5-(thiophen-2-yl)thiophen-3-yl}(4-chlorophenyl)methanone] | ≤ 4.2 fold | ~4.6 fold | 197 to 199 |
